# Assay results as given in US20170094996A1, “PROCESS FOR REBAUDIOSIDE D” (EPC (BEIJING) NATURAL PRODUCTS CO., LTD., priority 2009, published 2017).
# What was measured:
# [1] = Sensorical analysis of 3 samples steviol-glycosides, trained panel of 6 test persons; format: in vivo, human; details: 200 ppm solutions in water, 100 ml, blinded
# Method: Trained panel of 6 test persons.
# Samples were prepared as 200 ppm solutions in water (same temperature).
# Each test person received 3 equal glasses with 100 ml of prepared sample. The glasses were denoted with random 3-digit numbers.
# The question asked was: “Can you taste a difference between the samples and if so please describe the difference in plain text”.
# After the tasting period, the panel exchanged the individual opinions and came to following conclusion (the nature of sample was kept hidden until the conclusion was reached): […]
# [2] = compared with stevioside; Phytochemistry 68, 2007, 1855-1863; cited from earlier work
structure (smiles),measurement,setting,value
C=C1C[C@@]23CC[C@H]4[C@@](C)(CCC[C@@]4(C)C(=O)O[C@@H]4O[C@H](CO)[C@@H](O)[C@H](O)[C@H]4O)[C@@H]2CC[C@]1(O[C@@H]1O[C@H](CO)[C@@H](O)[C@H](O[C@@H]2O[C@H](CO)[C@@H](O)[C@H](O)[C@H]2O)[C@H]1O[C@@H]1O[C@H](CO)[C@@H](O)[C@H](O)[C@H]1O)C3 [Rebaudioside A],bitter after taste (panel conclusion),[1],slight bitter after taste
same,sweetness compared with the other samples (panel conclusion),[1],slightly less sweet than the 2 other samples
same,taste quality,[2],better than stevioside
